# According to US10561637B2, “Methods for treating angiogenesis related disorder” (KAOHSIUNG MEDICAL UNIVERSITY, priority 2017, dated 2020):
# “Also recorded” adds a separate entry of the source.
# What was measured:
# human EPCs [1] = assay: Sulforhodamine B (SRB) cell proliferation assay in human EPCs; assay type: cell-based; conditions: 48th hour
# Procedure: (§1) Mitella formosana (Hayata) Masam. is a perennial herb of Saxifragaceae, a native plant of Taiwan. In the present invention, three kinds of tannin compounds, PGG, tellimagrandin I, and tellimagrandin II, found in the compounds extracted from Mitella formosana by using Bioassay-guided fractionation, inhibited the proliferation of EPCs in a concentration dependent manner. […] The results of tube formation assay confirmed that these three compounds (10 μM) inhibited the tube formation of EPCs in different degrees (FIG. 2B). […] Importantly, CAM-angiogenesis model and mice Matrigel-plus model were used to verify the anti-angiogenic effect of tellimagrandin II in vivo.
# human EPCs [2] = assay: tube formation assay (capillary-like structures) in human EPCs; assay type: cell-based; conditions: 5 and 10 μM, 24 hours, phase-contrast microscope
# Description: The data of five independent experiments are expressed as the mean±mean standard deviation. As compared with the control group, * means p<0.05; *** means p<0.001.
# as §1
# mice = assay: Matrigel plug model of capillary formation; assay type: in vivo
# Description: (§2) Sorafenib is a multiple kinase inhibitor, which is used as a positive control in the in vivo anti-angiogenesis assay.
# as §1
# chicken embryo = assay: chorioallantoic membrane (CAM) angiogenesis assay; assay type: in vivo; conditions: CAM-angiogenesis model
# Description: as §2, §1
# human EPCs [3] = assay: lactate dehydrogenase (LDH) release assay in human EPCs; assay type: cell-based; conditions: 10-20 μM, 24th hour
# Description: The data of five independent experiments are expressed as the mean±mean standard deviation. As compared with the control group, * means p<0.05; ** means p<0.05; *** means p<0.001.
# as §1
SMILES,proliferation of EPCs (human EPCs [1]),"tube formation of EPCs, concentration dependence (human EPCs [2])",formation of capillaries in mice (mice),in vivo neovascularization in the chicken embryo (chicken embryo),LDH release (cytotoxicity) (human EPCs [3])
O=C(O[C@H]1[C@@H]2OC(=O)c3cc(O)c(O)c(O)c3-c3c(cc(O)c(O)c3O)C(=O)OC[C@H]2OC(O)[C@@H]1OC(=O)c1cc(O)c(O)c(O)c1)c1cc(O)c(O)c(O)c1 (some centres unmarked) [tellimagrandin I],suppress the proliferation of EPCs in a concentration dependent manner,–,–,–,–
"O=C(OC[C@H]1O[C@@H](OC(=O)c2cc(O)c(O)c(O)c2)[C@H](OC(=O)c2cc(O)c(O)c(O)c2)[C@@H](OC(=O)c2cc(O)c(O)c(O)c2)[C@@H]1OC(=O)c1cc(O)c(O)c(O)c1)c1cc(O)c(O)c(O)c1 [PGG, 1,2,3,4,6-penta-O-galloyl-β-D-glucose]",suppress the proliferation of EPCs in a concentration dependent manner,inhibited the tube formation of EPCs in a concentration dependent manner,–,–,–
O=C(OC1O[C@@H]2COC(=O)c3cc(O)c(O)c(O)c3-c3c(cc(O)c(O)c3O)C(=O)O[C@H]2[C@H](OC(=O)c2cc(O)c(O)c(O)c2)[C@H]1OC(=O)c1cc(O)c(O)c(O)c1)c1cc(O)c(O)c(O)c1 (some centres unmarked) [tellimagrandin II],suppress the proliferation of EPCs in a concentration dependent manner; also recorded: exhibited the most potent effect,inhibited the tube formation of EPCs in a concentration dependent manner,effectively inhibited the formation of capillaries in mice,inhibited in vivo neovascularization in the chicken embryo in a concentration dependent manner,LDH release was not induced
